# PubChem BioAssay (NCI)
# “And” between values parts separate entries of the source, which are not always exact repeats. Equal entries are not always repeated.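 48-hour exposure; five concentrations; linearly interpolated endpoints. GI50 = concentration required for 50% inhibition of growth. Definition used: TGI = concentration required for complete inhibition of growth.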
# Assays:
# Assay in all cases: NCI tumour cell line growth inhibition, 48 h
# SK-MEL-5 melanoma = tested on: SK-MEL-5 melanoma
# HCC-2998 colon = tested on: HCC-2998 colon
# SK-MEL-28 melanoma = tested on: SK-MEL-28 melanoma
# TK-10 renal = tested on: TK-10 renal
# HS 578T breast = tested on: HS 578T breast
# BT-549 breast = tested on: BT-549 breast
# MALME-3M melanoma = tested on: MALME-3M melanoma
# UO-31 renal = tested on: UO-31 renal
# DMS 273 small cell lung = tested on: DMS 273 small cell lung
# HOP-18 NSCLC = tested on: HOP-18 NSCLC
Compound,GI50 (SK-MEL-5 melanoma),TGI (SK-MEL-5 melanoma),GI50 (HCC-2998 colon),TGI (HCC-2998 colon),GI50 (SK-MEL-28 melanoma),TGI (SK-MEL-28 melanoma),GI50 (TK-10 renal),TGI (TK-10 renal),GI50 (HS 578T breast),TGI (HS 578T breast),GI50 (BT-549 breast),TGI (BT-549 breast),GI50 (MALME-3M melanoma),TGI (MALME-3M melanoma),GI50 (UO-31 renal),TGI (UO-31 renal),TGI (DMS 273 small cell lung) [µM],TGI (HOP-18 NSCLC) [µM]
C=C1c2c(C)nn(-c3ccc(C#CCOC4OC(CO)C(O)C(O)C4O)cc3)c2N(C)C23C[C@H]1C1(C)c4c(C)nn(-c5ccc(C#CCOC6OC(CO)C(O)C(O)C6O)cc5)c4N(C)C(C)(C[C@H]12)C3 (some centres not stated),1.38 µM,2.71 µM,1.57 µM,3.15 µM,1.9 µM,3.52 µM,2.01 µM,4.04 µM,0.472 µM,9.85 µM,1.3 µM,2.97 µM,1.87 µM,3.66 µM,2.83 µM,10.1 µM,,
CCN1C(=O)c2ccc3c4c(ccc(c24)C1=O)C(=O)N(CCCNCc1ccccc1OC)C3=O,0.164 µM,0.319 µM,0.632 µM,1.89 µM,1.58 µM,3.24 µM,2.52 µM,7.6 µM,2.21 µM,8.35 µM,1.48 µM,2.94 µM,0.186 µM,0.391 µM,1.39 µM,3.58 µM,,
C=CC[P@]1(=O)O[C@H](c2ccccc2)[C@H](C)N1C,,> 100 µM,,> 100 µM,,> 100 µM,,> 100 µM,,,,,,> 100 µM,,> 100 µM,> 100,> 100
CCCCCCCCCCCCCP(=O)(O)O,,> 100 µM,,> 100 µM,,> 100 µM,,> 100 µM,,,,,,> 100 µM,,> 100 µM,> 100,> 100
O=C(/C=C/c1ccccc1)Nc1ncc(Cc2ccccc2Cl)s1,0.341 µM,,0.361 µM,> 100 µM,1.5 µM,> 100 µM,> 100 µM,> 100 µM,0.302 µM,> 24.7 µM,0.945 µM,> 100 µM,0.365 µM,> 100 µM,0.614 µM,> 100 µM,,
COc1ccc(C=O)cc1O[Si](C)(C)C(C)(C)C,,> 100 µM,,> 100 µM,,,,> 100 µM,,,,,,> 100 µM,,> 100 µM,> 100,> 100
COc1ccc2c(c1)NC1=C(C(=O)OC1)C2c1cc(OC)c(OC)c(OC)c1 (configuration not stated),< 0.01 µM,< 0.0116 µM,< 0.01 µM,,,> 100 µM,< 0.01 µM,> 100 µM,< 0.01 µM,> 100 µM,< 0.01 µM,< 0.01 µM,26 µM,> 100 µM,,> 100 µM,,
C=CC(=O)N1CCC(Oc2cc3c(Nc4ccc(Cl)c(Cl)c4F)ncnc3cc2OC)CC1,7.18 µM and 3.47 µM,19.3 µM and > 9 µM,7.61 µM and 2.52 µM,24.8 µM and > 10 µM,11.6 µM and > 9.46 µM,25.8 µM and > 10 µM,< 0.001 µM,6.61 µM and 4.43 µM,3.61 µM and 1.74 µM,44.1 µM and 8.16 µM,1.9 µM and 2.23 µM,13.4 µM and > 10 µM,7.36 µM and > 5.35 µM,23.9 µM and > 10 µM,0.0493 µM and 0.0566 µM,4.75 µM and 3.72 µM,,
N#CCC(=O)N/N=C1/C(=O)N(c2ccc(Cl)cc2)C(=O)C(=O)C1c1nc2ccccc2s1 (configuration not stated),,> 100 µM,,> 100 µM,,> 100 µM,,> 100 µM,,,,,,> 100 µM,,> 100 µM,> 100,
CS(=O)(=O)CCNCc1coc(-c2ccc3ncnc(Nc4ccc(OCc5ccccc5)cc4)c3c2)c1,3.27 µM,6.46 µM,4.16 µM,7.91 µM,3.83 µM,7.49 µM,1.95 µM,12.2 µM,2.45 µM,7.66 µM,10.9 µM,> 25 µM,4.71 µM,9.57 µM,2.86 µM,6.95 µM,,
C[C@]12CCc3sc(Nc4ccc(OC(F)(F)F)cc4)nc3C1=CC[C@@H]1[C@@H]2CC[C@]2(C)C(=O)CC[C@@H]12,2.62 µM,7.41 µM,5.32 µM,18.6 µM,1.88 µM,7.98 µM,4.82 µM,32 µM,1.48 µM,5.22 µM,1.78 µM,7.42 µM,3.45 µM,16.8 µM,2.06 µM,4.73 µM,,
NC1=NN(c2ccccc2)C(=O)C1C(=O)CCC(=O)Nc1cccc(Cl)c1 (configuration not stated),,> 100 µM,,> 100 µM,,> 100 µM,,> 100 µM,,,,,,> 100 µM,,> 100 µM,> 100,> 100
CCOc1cc(C(C)(C)C)ccc1C1=N[C@H](c2ccc(Cl)cc2)[C@H](c2ccc(Cl)cc2)N1C(=O)N1CCN(CC#Cc2cccc3c2CN([C@@H]2CCC(=O)NC2=O)C3=O)CC1,0.868 µM,2.2 µM,0.905 µM,> 100 µM,3.29 µM,> 100 µM,2.41 µM,44 µM,0.346 µM,> 100 µM,0.317 µM,19.8 µM,0.0331 µM,0.778 µM,0.236 µM,2 µM,,
CCN(CC)CCCC(CCl)Nc1ccnc2cc(Cl)ccc12 (configuration not stated),10.3 µM and 13 µM,23.5 µM and 28.6 µM,11.9 µM,27.8 µM,18.8 µM and 19 µM,54.7 µM and > 63 µM,10.1 µM and 14.1 µM,22.2 µM and 29.4 µM,17.3 µM and 18.1 µM,42.5 µM and 44.3 µM,22.4 µM and 15.2 µM,60.2 µM and 49.1 µM,8.53 µM and 4.95 µM,21.1 µM and 20.1 µM,16.6 µM and 21.5 µM,37 µM and > 100 µM,,
NC(CCCC(N)P(=O)(O)O)P(=O)(O)O (configuration not stated),,> 100 µM,,> 100 µM,,> 100 µM,,> 100 µM,,,,,,> 100 µM,,> 100 µM,> 100,> 100
Nc1n[nH]c2cccc(C#Cc3cccc(NC(=O)c4cccc(C(F)(F)F)c4)c3)c12,4.13 µM,14.8 µM,2.43 µM,7.31 µM,2.72 µM,12.5 µM,5.61 µM,13.7 µM,1.96 µM,6.09 µM,3.34 µM,11.1 µM,0.446 µM,10.9 µM,2.29 µM,9.45 µM,,
